From ChEMBL document CHEMBL5303304, “EUbOPEN Chemogenomics Library - IncuCyte” (2023)
Values joined by “and” are separate entries in the source; they are usually repeats but may differ in a detail not shown here. Identical values can stand only once.

Experiments:
Type in all cases: toxicity, cell-based
Fibroblast = assay: Incucyte cell viability with human fibroblast; settings: 10 µM, compound concentration 10 uM
U2OS = assay: Incucyte cell viability with U2OS; settings: human, 10 µM, compound concentration 10 uM
HEK-293T = assay: Incucyte cell viability with HEK293T; settings: human, 10 µM, compound concentration 10 uM
Also: unitless GR value; below 1 slowed growth and below 0 cell loss.

CN(C)CC#Cc1ccc2[nH]c3c(c2c1)-c1nc(N)ncc1CCC3
Growth Rate (Fibroblast; 0 h, replicate number 1): -1 | Growth Rate (Fibroblast; 6 h, replicate number 1): 0.76 | Growth Rate (Fibroblast; 12 h, replicate number 1): 0.45 | Growth Rate (Fibroblast; 12 h, replicate number 2): 0.69 | Growth Rate (Fibroblast; 18 h, replicate number 1): 0.27 | Growth Rate (Fibroblast; 18 h, replicate number 2): 0.42 | Growth Rate (Fibroblast; 24 h, replicate number 1): 0.2 | Growth Rate (Fibroblast; 24 h, replicate number 2): 0.33 | Growth Rate (U2OS; 0 h, replicate number 1): -0.89 | Growth Rate (U2OS; 6 h, replicate number 2): 0.82 | Growth Rate (U2OS; 12 h, replicate number 1): 0.96 | Growth Rate (U2OS; 12 h, replicate number 2): 0.59 | Growth Rate (U2OS; 18 h, replicate number 1): 0.86 | Growth Rate (U2OS; 18 h, replicate number 2): 0.45 | Growth Rate (U2OS; 24 h, replicate number 1): 0.86 | Growth Rate (U2OS; 24 h, replicate number 2): 0.36 | Growth Rate (HEK-293T; 0 h, replicate number 1): -0.2 | Growth Rate (HEK-293T; 0 h, replicate number 2): 0.54 | Growth Rate (HEK-293T; 6 h, replicate number 1): -0.19 | Growth Rate (HEK-293T; 6 h, replicate number 2): -0.58 | Growth Rate (HEK-293T; 12 h, replicate number 1): -0.03 | Growth Rate (HEK-293T; 12 h, replicate number 2): -0.38 | Growth Rate (HEK-293T; 18 h, replicate number 1): 0.11 | Growth Rate (HEK-293T; 18 h, replicate number 2): -0.23 | Growth Rate (HEK-293T; 24 h, replicate number 1): 0.12 | Growth Rate (HEK-293T; 24 h, replicate number 2): -0.05

CCC(F)(F)c1cc(N2CCC(S(C)(=O)=O)CC2)nc2sc(C(N)=O)c(N)c12 [BI-605906]
Growth Rate (Fibroblast; 0 h, replicate number 1): 0.11 | Growth Rate (Fibroblast; 0 h, replicate number 2): 0.48 | Growth Rate (Fibroblast; 6 h, replicate number 1): 0.8 | Growth Rate (Fibroblast; 6 h, replicate number 2): 0.76 and 0.88 | Growth Rate (Fibroblast; 12 h, replicate number 1): 0.8 | Growth Rate (Fibroblast; 12 h, replicate number 2): 0.85 and 0.57 and 0.87 | Growth Rate (Fibroblast; 18 h, replicate number 1): 0.99 | Growth Rate (Fibroblast; 24 h, replicate number 1): 0.9 and 0.91 | Growth Rate (Fibroblast; 24 h, replicate number 2): 0.97 and 0.94 | Growth Rate (U2OS; 6 h, replicate number 1): 0.71 | Growth Rate (U2OS; 12 h, replicate number 2): -0.82 | Growth Rate (U2OS; 18 h, replicate number 1): 0.91 | Growth Rate (U2OS; 18 h, replicate number 2): 0.92 | Growth Rate (U2OS; 24 h, replicate number 1): 0.96 | Growth Rate (U2OS; 24 h, replicate number 2): 0.9 | Growth Rate (HEK-293T; 0 h, replicate number 1): -0.07 | Growth Rate (HEK-293T; 6 h, replicate number 1): 0.34 and 0.47 | Growth Rate (HEK-293T; 6 h, replicate number 2): 0.83 and 0.48 | Growth Rate (HEK-293T; 12 h, replicate number 1): 0.79 and 0.84 | Growth Rate (HEK-293T; 12 h, replicate number 2): 0.72 | Growth Rate (HEK-293T; 18 h, replicate number 1): 0.74 and 0.73 | Growth Rate (HEK-293T; 18 h, replicate number 2): 0.97 and 0.85 | Growth Rate (HEK-293T; 24 h, replicate number 1): 0.98 | Growth Rate (HEK-293T; 24 h, replicate number 2): 0.91

Cn1c(C2(NC(=O)c3ccc4c(C5CCCC5)c(-c5ncc(Br)cn5)n(C)c4c3)CCC2)nc2ccc(/C=C/C(=O)[O-])cc21.[Na+] [DELEOBUVIR SODIUM]
Growth Rate (Fibroblast; 0 h, replicate number 2): -0.22 | Growth Rate (Fibroblast; 6 h, replicate number 2): -0.13 | Growth Rate (U2OS; 12 h, replicate number 2): 0.79 | Growth Rate (U2OS; 18 h, replicate number 2): 0.92 | Growth Rate (U2OS; 24 h, replicate number 2): 0.93 | Growth Rate (HEK-293T; 0 h, replicate number 1): 0.69 | Growth Rate (HEK-293T; 0 h, replicate number 2): 0.32 | Growth Rate (HEK-293T; 18 h, replicate number 1): 0.92 | Growth Rate (HEK-293T; 18 h, replicate number 2): 0.81 | Growth Rate (HEK-293T; 24 h, replicate number 1): 0.94 | Growth Rate (HEK-293T; 24 h, replicate number 2): 0.8

FC(F)(F)Oc1ccc(-c2ccc3nnc(C(F)(F)F)n3c2)cc1
Growth Rate (Fibroblast; 6 h, replicate number 1): -0.05 | Growth Rate (Fibroblast; 6 h, replicate number 2): -1 | Growth Rate (Fibroblast; 12 h, replicate number 1): -1 | Growth Rate (Fibroblast; 12 h, replicate number 2): 0.76 | Growth Rate (Fibroblast; 18 h, replicate number 1): 0.42 | Growth Rate (Fibroblast; 18 h, replicate number 2): 0.75 | Growth Rate (Fibroblast; 24 h, replicate number 2): 0.91 | Growth Rate (U2OS; 6 h, replicate number 1): 0.08 | Growth Rate (U2OS; 6 h, replicate number 2): 0.81 | Growth Rate (U2OS; 12 h, replicate number 1): 0.82 | Growth Rate (U2OS; 12 h, replicate number 2): 0.64 | Growth Rate (U2OS; 18 h, replicate number 1): 0.74 | Growth Rate (U2OS; 18 h, replicate number 2): 0.92 | Growth Rate (U2OS; 24 h, replicate number 1): 0.91 | Growth Rate (U2OS; 24 h, replicate number 2): 0.96 | Growth Rate (HEK-293T; 0 h, replicate number 1): 0.83 | Growth Rate (HEK-293T; 0 h, replicate number 2): 0.64 | Growth Rate (HEK-293T; 6 h, replicate number 1): 0.53 | Growth Rate (HEK-293T; 18 h, replicate number 1): 1

O=C(Nc1ccc(N2CCC(C(=O)N3CCOCC3)CC2)cc1)c1cnc(Oc2ccccc2)nc1
Growth Rate (Fibroblast; 0 h, replicate number 2): -0.91 | Growth Rate (Fibroblast; 6 h, replicate number 1): 0.98 | Growth Rate (Fibroblast; 12 h, replicate number 2): 0.75 | Growth Rate (Fibroblast; 18 h, replicate number 1): 0.95 | Growth Rate (Fibroblast; 18 h, replicate number 2): 0.87 | Growth Rate (Fibroblast; 24 h, replicate number 1): 0.99 | Growth Rate (Fibroblast; 24 h, replicate number 2): 0.78 | Growth Rate (U2OS; 6 h, replicate number 1): 0.96 | Growth Rate (HEK-293T; 0 h, replicate number 2): -0.09 | Growth Rate (HEK-293T; 6 h, replicate number 1): -0.02 | Growth Rate (HEK-293T; 12 h, replicate number 1): 0.64 | Growth Rate (HEK-293T; 18 h, replicate number 1): 0.92 | Growth Rate (HEK-293T; 24 h, replicate number 1): 0.95

Cc1ccccc1Oc1cc(-n2c(=O)cc(C(F)(F)F)[nH]c2=O)c2ccccc2c1Cl [BAY-069]
Growth Rate (Fibroblast; 0 h, replicate number 1): 0.91 | Growth Rate (Fibroblast; 0 h, replicate number 2): 0.05 | Growth Rate (Fibroblast; 6 h, replicate number 1): 0.84 | Growth Rate (Fibroblast; 12 h, replicate number 1): 0.51 | Growth Rate (Fibroblast; 18 h, replicate number 1): 0.76 | Growth Rate (Fibroblast; 24 h, replicate number 1): 0.75 | Growth Rate (U2OS; 0 h, replicate number 1): -0.77 | Growth Rate (U2OS; 0 h, replicate number 2): 0.42 | Growth Rate (U2OS; 6 h, replicate number 1): 0.02 | Growth Rate (U2OS; 6 h, replicate number 2): 0.72 | Growth Rate (U2OS; 12 h, replicate number 1): -0.7 | Growth Rate (U2OS; 12 h, replicate number 2): 0.77 | Growth Rate (U2OS; 18 h, replicate number 1): 0.63 | Growth Rate (U2OS; 18 h, replicate number 2): 0.86 | Growth Rate (U2OS; 24 h, replicate number 1): 0.81 | Growth Rate (U2OS; 24 h, replicate number 2): 0.86 | Growth Rate (HEK-293T; 0 h, replicate number 1): 0.78 | Growth Rate (HEK-293T; 0 h, replicate number 2): -0.96 | Growth Rate (HEK-293T; 6 h, replicate number 1): 0.59 | Growth Rate (HEK-293T; 6 h, replicate number 2): 0.24 | Growth Rate (HEK-293T; 12 h, replicate number 1): 0.74 | Growth Rate (HEK-293T; 12 h, replicate number 2): 0.38 | Growth Rate (HEK-293T; 18 h, replicate number 1): 0.72 | Growth Rate (HEK-293T; 18 h, replicate number 2): 0.39 | Growth Rate (HEK-293T; 24 h, replicate number 1): 0.64 | Growth Rate (HEK-293T; 24 h, replicate number 2): 0.45

Clc1ccc(-c2nc3sccn3c2/C=N/OCc2ccc(Cl)c(Cl)c2)cc1
Growth Rate (Fibroblast; 0 h, replicate number 2): 0.32 | Growth Rate (Fibroblast; 6 h, replicate number 1): 0.02 | Growth Rate (Fibroblast; 12 h, replicate number 1): 0.58 | Growth Rate (Fibroblast; 18 h, replicate number 1): 0.63 | Growth Rate (Fibroblast; 24 h, replicate number 1): 0.85 | Growth Rate (U2OS; 0 h, replicate number 1): 0.48 | Growth Rate (U2OS; 6 h, replicate number 2): 0.91 | Growth Rate (U2OS; 12 h, replicate number 1): 0.92 | Growth Rate (U2OS; 12 h, replicate number 2): 0.89 | Growth Rate (U2OS; 18 h, replicate number 1): 0.87 | Growth Rate (U2OS; 18 h, replicate number 2): 0.95 | Growth Rate (U2OS; 24 h, replicate number 2): 0.93 | Growth Rate (HEK-293T; 0 h, replicate number 1): -0.74 | Growth Rate (HEK-293T; 0 h, replicate number 2): -0.64 | Growth Rate (HEK-293T; 6 h, replicate number 2): 1 | Growth Rate (HEK-293T; 12 h, replicate number 2): 1
